# Reference: paper PMC9979976 (Acta Crystallographica. Section F, Structural Biology …, 2023)
# B1: Chloramphenicol acetyltransferase III (enzyme)
# chain: SGGNYTKFDVKNWVRREHFEFYRHRLPCGFSLTSKIDITTLKKSLDDSAYKFYPVMIYLIAQAVNQFDELRMAIKDDELIVWDSVDPQFTVFHQETETFSALSCPYSSDIDQFMVNYLSVMERYKSDTKLFPQGVTPENHLNISALPWVNFDSFNLNVANFTDYFAPIITMAKYQQEGDRLLLPLSVQVHHAVCDGFHVARFINRLQELCNSKLK
# notes: cloning artifact left after TEV cleavage (Ser-Gly-Gly before Asn2); two Zn2+ modelled at contacts between trimers; also called CATIII; CATIII+GG; source: E. coli BL21(DE3), purified (HisTrap HP, TEV cleavage, second HisTrap HP); not shown: His6, N-terminal, cleaved
# Key:
# [1] = target: T1, CATIII (chloramphenicol acetyltransferase III; CATIII+GG) (Escherichia coli, UniProt P00484); assay: X-ray crystal structure, […] A; format: binding
# T1 construct: gene cat3; synthetic gene, full length without Met1; expressed in E. coli BL21(DE3); trimer
# [2] = target: the molecule itself; assay: crystal structure; CATIII+GG at 24 mg/ml co-crystallised with 10 mM partially hydrolysed AcOCoA and saturating chloramphenicol; hanging drop, 46% PEG 400, 100 mM MgCl2, 0.1 M sodium citrate pH 5.5; space group P4(2)2(1)2, 1.68 A
molecule,measurement,setting,value
O=C(N[C@H](CO)[C@H](O)c1ccc([N+](=O)[O-])cc1)C(Cl)Cl [chloramphenicol],"X-ray crystal structure, 1.68 A","[1]; co-crystallized at saturation with AcOCoA/OCoA, pH 5.5, 298 K, active site of each monomer",Our CATIII structure has clear electron density for chloramphenicol in each monomer
"CC(=O)OCCNC(=O)CCNC(=O)[C@H](O)C(C)(C)COP(=O)(O)OP(=O)(O)OC[C@H]1O[C@@H](n2cnc3c(N)ncnc32)[C@H](O)[C@@H]1OP(=O)(O)O [AcOCoA, acetyl-oxa(dethia)CoA]","X-ray crystal structure, 1.68 A","[1]; co-crystallized with 10 mM AcOCoA (partly hydrolysed) and saturated chloramphenicol, pH 5.5, 298 K, active site, clearest in chain A, unreactive substrate analog",In monomer A we can clearly model the position of the acetyl group
"CC(C)(COP(=O)(O)OP(=O)(O)OC[C@H]1O[C@@H](n2cnc3c(N)ncnc32)[C@H](O)[C@@H]1OP(=O)(O)O)[C@@H](O)C(=O)NCCC(=O)NCCO [OCoA, oxa(dethia)CoA]","X-ray crystal structure, 1.68 A","[1]; minor species (about 20% in monomer A) mixed with AcOCoA, with chloramphenicol, pH 5.5, active site",Our structures here reveal a mixture of bound AcOCoA and OCoA
B1,stoichiometry N,[2],3
